Measured values from patent US7855166B2, “Sulfonylamino(thio)carbonyl compounds” (Bayer Cropscience GmbH, priority 2005, dated 2010).

Tests used:
[1] = tested on: weed plants such as Sinapis alba, Chrysanthemum segetum, Avena sativa, Stellaria media, Echinochloa crus-galli, Lolium multiflorum, Setaria viridis, Abutilon …; test: Pre-emergence effect on weeds (greenhouse pot test, visual scoring); type: in vivo; conditions: applied pre-emergence at a rate of 0.3 kg or less of active substance per hectare; scored after 3 to 4 weeks in comparison to untreated controls
[2] = tested on: weed plants such as Sinapis alba, Echinochloa crus-galli, Lolium multiflorum, Chrysanthemum segetum, Setaria viridis, Abutilon theophrasti, Amaranthus …; test: Post-emergence effect on weeds (greenhouse pot test, visual scoring); type: in vivo; conditions: applied post-emergence (three-leaf stage) at a rate of 0.3 kg or less of active substance per hectare; scored after about 3 to 4 weeks in comparison to untreated controls

Row | Compound | herbicidal action against weed plants (visual scoring of plant damage or emergence damage) [1] | herbicidal action against weed plants (effect scored visually) [2]
1 | CCCOc1nn(C(=O)NS(=O)(=O)c2c(I)cccc2OC(F)(F)F)c(=O)n1C1CC1 [Compound 1.453] | very good herbidical action | very good herbicidal action
2 | CC(C)Oc1nn(C(=O)NS(=O)(=O)c2ccc(Cl)cc2I)c(=O)n1C [Compound 1.872] | very good herbidical action | very good herbicidal action
3 | COc1nn(C(=O)NS(=O)(=O)c2c(I)cccc2OCC2CC2)c(=O)n1C1CC1 [Compound 1.353] | very good herbidical action | very good herbicidal action
4 | CCCCc1ccc(S(=O)(=O)NC(=O)n2nc(OCCC)n(C)c2=O)c(I)c1 [Compound 1.884] | very good herbidical action | very good herbicidal action
5 | COc1nn(C(=O)NS(=O)(=O)c2c(I)cccc2OC(C)C)c(=O)n1C [Compound 1.251] | very good herbidical action | very good herbicidal action
6 | CCCOc1nn(C(=O)NS(=O)(=O)c2ccc(F)cc2I)c(=O)n1C [Compound 1.824] | very good herbidical action | very good herbicidal action
7 | CCCc1ccc(S(=O)(=O)NC(=O)n2nc(OC)n(C)c2=O)c(I)c1 [Compound 1.876] | very good herbidical action | very good herbicidal action
8 | COc1ccc(Cl)c(I)c1S(=O)(=O)NC(=O)n1nc(OC)n(C)c1=O [Compound 1.816] | very good herbidical action | very good herbicidal action
9 | CCCOc1nn(C(=O)NS(=O)(=O)c2c(I)cccc2OS(=O)(=O)N(C)C)c(=O)n1C [Compound 1.751] | very good herbidical action | very good herbicidal action
10 | CCOc1nn(C(=O)NS(=O)(=O)c2c(F)cccc2I)c(=O)n1C1CC1 [Compound 1.027] | very good herbidical action | very good herbicidal action
11 | CCCOc1nn(C(=O)NS(=O)(=O)c2c(Cl)cc(C(F)(F)F)cc2I)c(=O)n1C1CC1 [Compound 1.848] | very good herbidical action | very good herbicidal action
12 | CCCCOc1cccc(I)c1S(=O)(=O)NC(=O)n1nc(OC)n(C)c1=O [Compound 1.273] | very good herbidical action | very good herbicidal action
13 | COc1nn(C(=O)NS(=O)(=O)c2ccc(C(F)(F)F)cc2I)c(=O)n1C1CC1 [Compound 1.896] | very good herbidical action | very good herbicidal action
14 | CCOc1nn(C(=O)NS(=O)(=O)c2ccc(C)c(F)c2I)c(=O)n1C [Compound 1.856] | very good herbidical action | very good herbicidal action
15 | CCOc1nn(C(=O)NS(=O)(=O)c2c(OC)ccc(Cl)c2I)c(=O)n1C [Compound 1.817] | very good herbidical action | very good herbicidal action
16 | CCCOc1nn(C(=O)NS(=O)(=O)c2ccc(C)c(F)c2I)c(=O)n1C1CC1 [Compound 1.861] | very good herbidical action | very good herbicidal action
17 | CCCOc1nn(C(=O)NS(=O)(=O)c2c(I)cccc2OS(C)(=O)=O)c(=O)n1C1CC1 [Compound 1.718] | very good herbidical action | very good herbicidal action
18 | CCCOc1nn(C(=O)NS(=O)(=O)c2c(C)cccc2I)c(=O)n1C [Compound 1.039] | very good herbidical action | very good herbicidal action

Row | Compound | herbicidal action against weed plants (visual scoring of plant damage or emergence damage) [1] | herbicidal action against weed plants (effect scored visually) [2]
19 | CCOc1nn(C(=O)NS(=O)(=O)c2c(I)cccc2OS(=O)(=O)N(C)C)c(=O)n1C1CC1 [Compound 1.755] | very good herbidical action | very good herbicidal action
20 | CCCCc1ccc(S(=O)(=O)NC(=O)n2nc(OC)n(C)c2=O)c(I)c1 [Compound 1.885] | very good herbidical action | very good herbicidal action
21 | COc1nn(C(=O)NS(=O)(=O)c2ccccc2I)c(=O)n1C [Compound 1.001] | very good herbidical action | very good herbicidal action
22 | COc1nn(C(=O)NS(=O)(=O)c2c(I)cccc2OCC(C)C)c(=O)n1C1CC1 [Compound 1.294] | very good herbidical action | very good herbicidal action
23 | CCOc1nn(C(=O)NS(=O)(=O)c2c(I)cccc2OC(F)(F)F)c(=O)n1C [Compound 1.443] | very good herbidical action | very good herbicidal action
24 | CC(C)Oc1nn(C(=O)NS(=O)(=O)c2c(I)cccc2OS(=O)(=O)N(C)C)c(=O)n1C [Compound 1.752] | very good herbidical action | very good herbicidal action
25 | CCCOc1nn(C(=O)NS(=O)(=O)c2c(I)cccc2OC(C)C)c(=O)n1C [Compound 1.255] | very good herbidical action | very good herbicidal action
26 | CCCOc1nn(C(=O)NS(=O)(=O)c2c(I)cccc2OCC)c(=O)n1C [Compound 1.215] | very good herbidical action | very good herbicidal action
27 | CCCOc1cccc(I)c1S(=O)(=O)NC(=O)n1nc(OCCC)n(C)c1=O [Compound 1.235] | very good herbidical action | very good herbicidal action
28 | CCCOc1nn(C(=O)NS(=O)(=O)c2c(I)cccc2OC(F)F)c(=O)n1C [Compound 1.464] | very good herbidical action | very good herbicidal action
29 | CCOc1nn(C(=O)NS(=O)(=O)c2c(I)cccc2OCC2CC2)c(=O)n1C1CC1 [Compound 1.356] | very good herbidical action | very good herbicidal action
30 | CCCOc1cccc(I)c1S(=O)(=O)NC(=O)n1nc(OC)n(C)c1=O [Compound 1.231] | very good herbidical action | very good herbicidal action
31 | CCCOc1nn(C(=O)NS(=O)(=O)c2ccc(C)c(F)c2I)c(=O)n1C [Compound 1.857] | very good herbidical action | very good herbicidal action
32 | CCOc1nn(C(=O)NS(=O)(=O)c2c(I)cccc2OS(C)(=O)=O)c(=O)n1C [Compound 1.712] | very good herbidical action | very good herbicidal action
33 | COc1nn(C(=O)NS(=O)(=O)c2c(I)cccc2OS(=O)(=O)N(C)C)c(=O)n1C1CC1 [Compound 1.754] | very good herbidical action | very good herbicidal action
34 | CCCOc1nn(C(=O)NS(=O)(=O)c2c(Cl)ccc(Cl)c2I)c(=O)n1C [Compound 1.851] | very good herbidical action | very good herbicidal action
35 | CC(C)Oc1nn(C(=O)NS(=O)(=O)c2c(I)cccc2OC(F)F)c(=O)n1C [Compound 1.465] | very good herbidical action | very good herbicidal action
